Molecules are shown by their SMILES. Several values for one entry are separate records, joined by “and”; a condition that tells them apart may be missing. Identical values can stand only once.

These results are taken from patent US20180127681A1, “GLYCOSYLATED AROMA- AND FRAGRANCE PRECURSORS AND FRAGRANCE PRODUCTS THAT CAN BE ACTIVATED” (Technische University Muenchen, priority 2015, published 2018).

A short description of data set [1]: Baking tests, dough of three kinds of bread with 100 ppm geranyl glucoside (summary). In kind it is physicochemical. The protocol:
The proof-of-principle was now shown successfully for the example bread. Dough from three different kinds of bread was treated with the aroma precursor geranyl glucoside. […] This conversion is ascribed to the biggest extent to pyrolytic processes (about 5%) during the ten-minute baking process at 230° C. and partly on the enzyme-catalyzed hydrolytic processes (about […]) during the preparation of yeast-ß-glucosidase.

The nature of data set [2]: Baking test 1, flour dough, release of geraniol by GC-MS. The data set is classed as physicochemical. The settings on record: for conversion of GG to geraniol, mean value: triplicate, from 3.2 μmol GG in 17 g bread. An excerpt: Dough blanks of 10 g flour each were used as base. A negative control (flour, salt and water), three samples (added geranyl glucoside), a recovery (addition of geraniol to the bread prior to freezing according to a postulated conversion of glucoside of about 6% in order to determine the losses during the analytical process) and a control for geraniol in the glucoside solution (addition of an aliquot amount of glucoside only after the baking process to determine the content of geraniol). Several process steps are carried out according to standardized instructions, for each of the six blanks separately.
For a blank/blind test (1) 9.98 g well-mixed flour were weighed into a glass vessel and 0.2 g NaCl were added. The mixture was at first mixed in a dry state for 1 min in a farinograph (=kneader) and kneaded for 8 min after pipetting 6.4 ml dist. water. The dough was taken out quickly and weighed for a first time (E1). A first fermenting period of […] at 31° C. took place in a water vapor saturated proofing cabinet. After taking the dough out of the cabinet a second weighing (E2) took place as well as the homogenization. The ball-shaped blank was put into a round molder (“Rundwirker”) and turned for 10 turns with a superimposed pestle. It was drawn through a pasta/noodle roller, folded two times without inclusion of air and again turned in the round molder for 20 turns. Finally a forming by hand was performed. After the homogenization a second fermentation period of 35 min follows.
For samples (2a-c) additionally 10 μl of a geranyl glucoside (GG) solution (c=98 mg/ml) were quickly pipetted after the addition of water into the kneader.
Baking took place on a tray in the oven for 10 min at 230° C. Before and after putting the samples vapor was put into the closed oven, respectively (spraying and evaporating of 25 ml dist. H2O).
The baked bread was left standing for 60 min at room temperature and subsequently frozen in liquid nitrogen. Storage of the breads took place at −18° C. until the conditioning/preparation. […]

Data set [3] in a line: Baking test 2, simple yeast dough, release of geraniol by GC-MS. The data set is classed as physicochemical. The procedure:
As samples dough blanks of 10 g flour each were used. A negative control (flour, salt, sugar, yeast and water), three samples (additionally geranyl glucoside) and a recovery (addition of geraniol to the bread before freezing according to a postulated conversion of glucoside of 6% in order to determine losses during the analytical procedure) were used. Several process steps were carried out according to standardized specifications, separate for each of the five blanks.
For a blank/blind test (i) 9.98 g well-mixed flour were weighed into a glass vessel. 0.2 g NaCl and 0.1 g sucrose were added and the mixture was put in the kneader. An addition of 0.7 g (cooled) baking yeast directly to the kneader followed. The mixture was at first kneaded in a dry state for 1 min and kneaded for 8 min after pipetting 6.3 ml dist. H2O. All further steps including the work-up and sample taking ware carried out according to the sample with flour dough (1). In the samples (2a-c) 10 μl GG-solution were pipetted directly after the addition of water to the kneader. The preparation of the recovery (3) was carried out analogous to the blind sample. After cooling for one hour 170 μl geraniol solution were injected herein into the breadcrumb directly before freezing with liquid nitrogen.

Data set [4] can be described thus: Baking test 3, standard yeast dough, release of geraniol by GC-MS. The data set is classed as physicochemical. The procedure: As samples dough blanks of 10 g flour each were used. A negative control (flour, salt, sugar, fat, yeast, L-ascorbic acid and water), three samples (additionally geranyl glucoside) and a recovery (addition of geraniol to the bread before freezing according to a postulated conversion of glucoside of 6% in order to determine losses during the analytical procedure) were used. Several process steps were carried out according to standardized specifications, separate for each of the five blanks.
For a blank/blind test (i) 9.98 g well-mixed flour were weighed into a glass vessel. 0.2 g NaCl and 0.1 g sucrose and 0.1 g palm fat were added and the mixture was put in the kneader. An addition of 0.7 g (cooled) baking yeast directly to the kneader followed. The mixture was at first kneaded in a dry state for 1 min and kneaded for 8 min after pipetting 6.0 ml dist. H2O and 0.3 ml ascorbic acid solution.
All further steps including the work-up and sample taking ware carried out according to the sample with flour dough (1). In the samples (2a-c) 10 μl GG-solution were pipetted directly after the addition of water and ascorbic acid solution to the kneader. The preparation of the recovery (3) was carried out analogous to the blind sample. After cooling for one hour 170 μl geraniol solution were injected herein into the breadcrumb directly before freezing with liquid nitrogen.

Another data set deals with FaGTs1-13. In words: In vitro glycosyltransferase assay with 14C UDP-glucose, substrates of FaGTs1-13. The settings on record: FaGTs1-13, FIG. 11B, 1 h at 30° C. The data set is classed as biochemical, Fragaria x ananassa. The text has this: In the search for efficient biocatalysts which can be particularly used for the production of aroma glycosides the UGT gene family of plant species Vitis vinifera (grape vine) and Fragaria x ananassa (strawberry) was examined. For this at first the gene sequences were searched that are strongly expressed in the fruits of the plant species. These were subsequently isolated, expressed in the host organism Escherichia coli, and the enzymatic activity toward different potential substrates was determined. At least three of the coding nucleic acid sequences (FaGTs1-5, FaGTs1-13 and VvdGT13, see appended sequences) catalyze the formation of aroma glycosides very efficiently.
In FIG. 11 the determination of the enzyme activity of FaGTs1-5 and FaGTs1-13 is shown.
The reaction was started by adding UDP-glucose and stopped after incubation with 1 ml n-butanol. After vortexing for at least 15 s the reaction mixture was centrifuged 2 min at 12 000×g for separation of the phases, and 800 μl of the upper organic phase containing the product were now transferred to 2 ml scintillation cocktail (Ultima-Flo AF, PerkinElmer).

With `CC(C)=CCC/C(C)=C/CO[C@@H]1O[C@H](CO)[C@@H](O)[C@H](O)[C@H]1O` [geranyl glucoside], the “content of geraniol in bread” value in data set [1] (100 ppm added, conversion of 6%) is given as 1.7 mg/kg. Besides, the “conversion of glucoside to geraniol” value in data set [1] (addition of 100 ppm geranyl glucoside, ten-minute baking at 230° C.) is given as “about 6%”. In addition, the “conversion ascribed to pyrolytic processes” value in data set [1] (ten-minute baking process at 230° C.) was “about 5%”. The “content of geraniol in the baked bread” value in data set [2] turned out to be 1.40 mg/kg. The “conversion of GG to geraniol, mean value” was 4.8% in data set [2]; 4.8% and 4.9% in data set [2] (listed as GG); 6.1% in data set [3] (samples 2a and 2c only, from 3.2 μmol GG in 17 g bread); 5.7% in data set [4] (triplicate, from 3.2 μmol GG in 17 g bread). The results for the “content of geraniol in the bread” value in data set [3] and in data set [4] were 1.77 mg/kg and 1.67 mg/kg, respectively.
Take `CCC1OC(C)=C(O)C1=O` (centres unmarked) [homofuraneol]: the “conversion relative to furaneol” value with FaGTs1-13 was 3 times.
